Measured values: patent publication US9790253B2, “OSW-1 analogs and conjugates, and uses thereof” (priority 2011, dated 2017)
Where two headings read alike, the source gives them in different places.

Assays:
[1] = tested on: HCT-116 p21^−/− cells with OSBP1-targeting shRNA; assay: OSBP1 shRNA knockdown/dose-shift experiment; assay type: cell-based, human; conditions: shOSBP1 vs shNT, 72 h
Description: FIG. 3A is a series of four bar graphs depicting knockdown/dose-shift experiment in HCT-116 p21^−/− cells stably transfected with either OSBP1-targeting shRNA (shOSBP1) or non-targeting shRNA (shNT). Bars represent s.d. of three or four individual experiments. * P=0.0002 (n=3); ** P=0.0006 (n=4); *** P=0.0003 (n=3) compared to shNT cells (two-tailed students t-test).
To ascertain if the antiproliferative activity of the ORPphilins depended on the levels of OSBP1 and ORP4L in cells, short hairpin RNA (shRNA) knockdown of OSBP1 expression was performed and then its effect on the growth inhibitory activity of 1, 2, and 4a measured. […] Similar results were obtained in HeLa cells. Overexpression of OSBP1-myc-his or ORP4L-myc-his (FIG. 3C) for 48 h desensitized HeLa cells to the antiproliferative activity of 1, 2, or 4a by ˜2-5-fold (FIG. 3D). However, taxol-induced growth inhibition was not affected by overexpression of OSBP1-myc-his or ORP4L-myc-his (FIG. 3D).

HCT-116 cells = assay: Growth inhibition with 25-OHC co-administration; assay type: cell-based, human; conditions: for effect of 25-OHC co-administration on the antiproliferative activity: 10 μM 25-OHC for 1 and 2
Procedure: 25-OHC (11) is a high-affinity ligand of OSBP1 and ORP4L that is not cytotoxic at concentrations up to 10 μM. Example 1 established that the ORPphilins compete with 25-OHC for binding to OSBP1 and ORP4L (FIG. 2D,E). Therefore, if OSBP1 and ORP4L mediate the biological activities of these compounds, co-administration of sub-lethal doses of 25-OHC with the ORPphilins should inhibit binding of the ORPphilins to OSBP1 and ORP4L, thereby desensitizing cells to the cytotoxic effects of the ORPphilins.

[2] = tested on: OSBP1 localization in HCT-116 cells; assay: OSBP1 localization by immunofluorescence microscopy, HCT-116; assay type: cell-based, human; conditions: 4 h treatment
Procedure: (§1) Immunofluorescence microscopy. HCT-116 or A549 (adenocarcinomic human alveolar basal epithelial) cells were plated on coverslips in 6-well plates. After 72 h, the culture media was removed and replaced with media containing either compound or vehicle control. At the indicated time-points, the cells were fixed for 10 min using 3.7% formaldehyde in PBS. The coverslips were washed with PBS and permeabilized for 5 min with 0.5% Triton X-100 in PBS. Following PBS washing, the coverslips were blocked for 30 min using Image-iT™ FX (Invitrogen), washed with PBS, and then blocked for 30 min at room temperature (RT) with 1% BSA in PBS (BSA/PBS). The coverslips were then incubated overnight at 4° C. with a primary antibody solution in BSA/PBS. The coverslips were washed with BSA/PBS and incubated for 60 min at RT with Alexa Fluor®-conjugated secondary antibodies (Invitrogen) in BSA/PBS, with the final 30 min including incubation with Hoescht 33258. The coverslips were then washed sequentially with BSA/PBS, PBS, and water and finally mounted on microscope slides using Aqua Poly/Mount (Polysciences Inc.). Imaging data was acquired using Zeiss LSM 510 META scanning confocal microscope.
Although the function of OSBP1 is not yet fully elucidated, several cellular activities have been observed. For instance, OSBP1 translocates from cytoplasmic sites to the trans-Golgi network (TGN) upon addition of 25-OHC to cells. HCT-116 cells were treated with ORPphilins for short time periods (4 h) and the effects on OSBP1 localization monitored using immunofluorescence microscopy.
OSBP1 (green) and trans-Golgi protein P230 (red) were visualized in HCT-116 cells using indirect immunofluorescence microscopy. Cells were treated with compound for 4 h, fixed with 3.7% formaldehyde/PBS, washed, and permeabilized using 0.5% Triton X-100 in PBS. Proteins were labelled using specific primary antibodies against OSBP1 and P230 overnight at 4° C. After washing, cells were treated with Alexa Fluor 488 and Alexa Fluor 546 secondary antibodies for 1 h at RT.

[3] = tested on: OSBP1 localization in A549 cells; assay: OSBP1 localization by immunofluorescence microscopy, A549; assay type: cell-based, human
Procedure: as §1
Perturbations of OSBP1 localization by 1, 2, and 4b in A549 cells were also observed.

[4] = tested on: CERT protein levels in HCT-116 cells or A549 cells; assay: CERT protein levels; assay type: cell-based, human; conditions: high dose (GI90)
Procedure: Suppression of CERT expression is reported to cause a significant reduction in basal SM biosynthesis. Therefore, 1 and 2 were tested for their ability to induce a reduction in CERT levels, akin to the effects of 1 and 2 on OSBP1 levels.

NPC1^−/− (M12) CHO cells = assay: Antiproliferative activity in NPC1-/- (M12) CHO cells; assay type: cell-based
CHO-7 cells = assay: Antiproliferative activity in CHO-7 cells, lipoprotein-deficient media; assay type: cell-based
Description: FIG. 4B is a bar graph depicting how removal of lipoproteins from the growth medium sensitizes CHO-7 cells to 25-OHC but not 1, 2, or 4a. Mean±s.d. of two individual experiments. Bref A, brefeldin A.
Insig is a chief regulator of SREBP-dependent cholesterol homeostasis, and 25-OHC exerts much of its ability to inhibit cholesterol biosynthesis through its binding to Insig. The possibility that suppression of the antiproliferative activity of the ORPphilins by 25-OHC could be due to displacement of these compounds from NPC1 or Insig was considered. […] In addition, the antiproliferative activity of 1-4a was evaluated in the CHO-7 cell line, which is a cell line adapted to grow in lipoprotein-deficient media. In lipoprotein-deficient media, CHO-7 cells are dependent on Insig-mediated cholesterol biosynthesis for survival, and are therefore sensitive to 25-OHC binding to Insig. Unlike 25-OHC, the antiproliferative activity of 1, 2, and 4a in CHO-7 cells was not enhanced in lipoprotein-deficient media.

[5] = tested on: HCT-116 p21^+/+ (wt) cells; assay: Growth inhibition (cell viability assay) of HCT-116 p21+/+ cells; conditions: for GI50: HCT-116 p21+/+
Procedure: Cell viability assay. Cells were plated into 96-well plates in 75 μL of media. After 24 h, a time-zero plate was produced by adding 25 μL of media and 20 μL of CellTiter-Blue® (Promega) to the wells, followed by incubation at 37° C. for 90 min. Fluorescence (544 nm excitation; 590 nm emission) was detected using a SPECTRAmax® Gemini XS to establish cell viability at time of dosing. Then, compounds were serially diluted in media and delivered to the cells as 4× solutions in 25 μL of media. At either 48 h or 72 h, CellTiter-Blue® was added and the fluorescence was recorded as described above.
Tasdemir et al. (2002) J Nat Prod 65:210-4. GI50-values of the compounds were determined in HCT-116 p21^+/+ (wt) and p21^−/− cells after 48 h using a resazurin redox dye to measure cell viability.
Methods are described above in the General Methods section.

C[C@@H]1[C@]2(O[C@H]3C=C4[C@@H]5CC[C@H]6Cc7nc8c(nc7C[C@]6(C)[C@H]5C[C@@H](O)[C@]4(C)[C@]31O)C[C@@H]1CC[C@H]3C4=CC[C@@H]5[C@H](C)[C@@]6(OC[C@]45C(=O)C[C@@H]3[C@@]1(C)C8)OC(C)(C)C[C@H]6O)O[C@](C)(CO)C[C@H]2O [cephalostatin 1, Cephalostatin 1]
sensitization by OSBP1 knockdown (GI50 shift) [1]: 4 fold | effect of 25-OHC co-administration on the antiproliferative activity (HCT-116 cells): nearly complete desensitization | OSBP1 localization [2]: OSBP1 occupying a perinuclear position with little co-localization of the dispersed p230 marker | OSBP1 localization ([2]; listed as 1): partially localize to the plasma membrane | OSBP1 localization [3]: induced dispersal or vesiculation of OSBP1 | effect on CERT protein levels [4]: did not affect | antiproliferative activity in NPC1−/− (M12) CHO cells compared to wt CHO cells (NPC1^−/− (M12) CHO cells): no change | antiproliferative activity in lipoprotein-deficient media (CHO-7 cells): not enhanced

C[C@H](CCCC(C)(C)O)[C@H]1CC[C@H]2[C@@H]3CC=C4C[C@@H](O)CC[C@]4(C)[C@H]3CC[C@]12C [Compound 25-OHC, 25-hydroxycholesterol]
cytotoxicity (HCT-116 cells; concentrations up to 10 μM, cell line not given at the place): not cytotoxic

COc1ccc(C(=O)O[C@H]2[C@H](O[C@@H]3[C@@H](OC(C)=O)[C@H](O[C@H]4C[C@H]5[C@@H]6CC=C7C[C@@H](O)CC[C@]7(C)[C@H]6CC[C@]5(C)[C@@]4(O)[C@H](C)C(=O)CCC(C)C)OC[C@@H]3O)OC[C@@H](O)[C@@H]2O)cc1 [OSW-1]
GI50 ([5]; read-out: GI50 (nM) 48 h p21^+/+, 48 h): 28 nM | GI50 ([5]; read-out: GI50 (nM) 72 h p21^+/+, 72 h): 1.6 ± 0.6 nM | sensitization by OSBP1 knockdown (GI50 shift) [1]: 6 fold | effect of 25-OHC co-administration on the antiproliferative activity (HCT-116 cells): nearly complete desensitization | OSBP1 localization [2]: caused OSBP1 to localize to a perinuclear position that did not co-localize with p230 | OSBP1 localization [3]: induced dispersal or vesiculation of OSBP1 | effect on CERT protein levels [4]: did not affect | antiproliferative activity in NPC1−/− (M12) CHO cells compared to wt CHO cells (NPC1^−/− (M12) CHO cells): no change | antiproliferative activity in lipoprotein-deficient media (CHO-7 cells): not enhanced

schweinfurthin A
fold less cytotoxic than the other ORPphilins [5]: 100-300 fold | sensitization by OSBP1 knockdown (GI50 shift) [1]: 9 fold | OSBP1 localization [2]: caused OSBP1 to accumulate at perinuclear positions with a large degree of co-localization with the trans-Golgi marker p230 | antiproliferative activity in NPC1−/− (M12) CHO cells compared to wt CHO cells (NPC1^−/− (M12) CHO cells): no change | antiproliferative activity in lipoprotein-deficient media (CHO-7 cells): not enhanced
